{"source": "patent US11980618B2", "about": "“Nitric oxide releasing phosphodiesterase type 5 inhibitor” (NICOX S.A., priority 2018, dated 2024)", "key": {"[1]": {"tested_on": "laser-induced ocular hypertensive non-human primates", "experiment": "Intraocular pressure (IOP) lowering effect in laser-induced ocular hypertensive non-human primates (topical dosing, pneumatonometer)", "type": "in vivo"}, "[2]": {"tested_on": "ocular normotensive New Zealand white rabbits", "experiment": "Intraocular pressure (IOP) lowering effects in ocular normotensive New Zealand white rabbits (topical dosing, pneumatonometer)", "type": "in vivo"}, "[3]": {"details": "Example 26, 2.0% w/v, 30 μL topical"}}}
{"smiles": "O=C(O)CCCCCO[N+](=O)[O-]", "note": "[(IIIa)-OH, 6-(nitrooxy)hexanoic acid]", "values": [{"measurement": "IOP change (mmHg) E480", "setting": "[1]; in vivo", "result": "−2.7±1.5", "unit": "mmHg"}, {"measurement": "IOP change (mmHg) Emax", "setting": "[1]; in vivo", "result": "−5.2±1.0", "unit": "mmHg"}]}
{"smiles": "CCCOc1ccc(S(=O)(=O)N2CCN(CCOC(=O)CCOC[C@@H](CO[N+](=O)[O-])O[N+](=O)[O-])CC2)cc1-c1nc2c(CCC)cn(CC)c2c(=O)[nH]1.O=C(O)CC(O)(CC(=O)O)C(=O)O", "note": "[Compound (1)-(2S)-citrate salt, (S)-2-(4-(3-(5-ethyl-4-oxo-7-propyl-4,5-dihydro-3H-pyrrolo[3,2-d]pyrimidin-2-yl)-4-propoxyphenylsulfonyl)piperazin-1-yl)ethyl 3-[2,3-bis(nitrooxy)propoxy]propanoate citrate]", "values": [{"measurement": "IOP change (mmHg) E180 min", "setting": "[2]; rabbit, in vivo", "result": "−1.8 ± 0.8", "unit": "mmHg"}, {"measurement": "IOP change (mmHg) Emax", "setting": "[2]; rabbit, in vivo", "result": "−3.8 ± 0.5 (60 min) mmHg"}, {"measurement": "IOP change at Emax", "setting": "[2]; rabbit, in vivo", "result": "−3.8 ± 0.5 (60 min)"}, {"measurement": "IOP change (mmHg) 30 min", "setting": "[1]; in vivo", "result": "−4.0 ± 0.9", "unit": "mmHg"}, {"measurement": "IOP change (mmHg) 60 min", "setting": "[1]; in vivo", "result": "−5.3 ± 1.0", "unit": "mmHg"}, {"measurement": "IOP change (mmHg) 180 min", "setting": "[1]; in vivo", "result": "−4.9 ± 1.5", "unit": "mmHg"}, {"measurement": "IOP change (mmHg) 300 min", "setting": "[1]; in vivo", "result": "−4.4 ± 0.9", "unit": "mmHg"}, {"measurement": "IOP change (mmHg) 1440 min", "setting": "[1]; in vivo", "result": "−2.6 ± 1.3", "unit": "mmHg"}, {"measurement": "IOP change (mmHg) E300 min", "setting": "[1]; in vivo", "result": "−5.3 ± 1.9", "unit": "mmHg"}, {"measurement": "IOP change (mmHg) Emax", "setting": "[1]; in vivo", "result": "−7.0 ± 0.9 (60 min) mmHg"}]}
{"smiles": "COc1ccc(CNc2nc(N3CCC[C@H]3COC(=O)CCCCCO[N+](=O)[O-])ncc2C(=O)NCc2ncccn2)cc1Cl.O=C(O)CC(O)(CC(=O)O)C(=O)O", "note": "[Compound (9)-citrate salt, (S)-(1-(4-(3-chloro-4-methoxybenzylamino)-5-(pyrimidin-2-ylmethylcarbamoyl)pyrimidin-2-yl)pyrrolidin-2-yl)methyl 6-(nitrooxy)hexanoate 2-hydroxypropane-1,2,3-tricarboxylate]", "values": [{"measurement": "IOP change (mmHg) E480", "setting": "[1]; in vivo", "result": "−6.0±2.1", "unit": "mmHg"}, {"measurement": "IOP change (mmHg) Emax", "setting": "[1]; in vivo", "result": "−6.0±2.1", "unit": "mmHg"}]}
{"smiles": "COc1ccc(CNc2nc(N3CCC[C@H]3COC(=O)CCCCCO[N+](=O)[O-])ncc2C(=O)NCc2ncccn2)cc1Cl.O=C(O)/C=C/C(=O)O", "note": "[Compound (9)-fumarate salt, (S)-(1-(4-(3-chloro-4-methoxybenzylamino)-5-(pyrimidin-2-ylmethylcarbamoyl)pyrimidin-2-yl)pyrrolidin-2-yl)methyl 6-(nitrooxy)hexanoate Fumarate]", "values": [{"measurement": "IOP change (mmHg) 30 min", "setting": "[1]; Example 26, Table 5, 2.0% w/v, 30 μL topical, 30 min post-dosing, mean±SEM n=8 eye", "result": "−4.0 ± 1.3", "unit": "mmHg"}, {"measurement": "IOP change (mmHg) 60 min", "setting": "[1]; Example 26, Table 5, 2.0% w/v, 30 μL topical, 60 min post-dosing, mean±SEM n=8 eye", "result": "−3.5 ± 1.6", "unit": "mmHg"}, {"measurement": "IOP change (mmHg) 300 min", "setting": "[1]; Example 26, Table 5, 2.0% w/v, 30 μL topical, 300 min post-dosing, mean±SEM n=8 eye", "result": "−4.1 ± 2.7", "unit": "mmHg"}, {"measurement": "IOP change (mmHg) 1440 min", "setting": "[1]; Example 26, Table 5, 2.0% w/v, 30 μL topical, 1440 min (24 hours) post-dosing, mean±SEM n=8 eye, Fumarate", "result": "−2.8±2.0", "unit": "mmHg"}, {"measurement": "maximum intraocular pressure-lowering efficacy, Emax", "setting": "[1]; [3]", "result": "−4.1±2.7", "unit": "mmHg"}, {"measurement": "time of Emax", "setting": "[1]; [3]", "result": 300, "unit": "min"}]}
{"smiles": "COc1ccc(CNc2nc(N3CCC[C@H]3COC(=O)CCOC[C@@H](CO[N+](=O)[O-])O[N+](=O)[O-])ncc2C(=O)NCc2ncccn2)cc1Cl.O=C(O)CC(O)(CC(=O)O)C(=O)O", "note": "[Compound (12)-(2S)-citrate salt, ((S)-1-(4-(3-chloro-4-methoxybenzylamino)-5-(pyrimidin-2-ylmethylcarbamoyl)pyrimidin-2-yl)pyrrolidin-2-yl)methyl 3-((S)-2,3-bis(nitrooxy)propoxy)propanoate 2-hydroxypropane-1,2,3-tricarboxylate]", "values": [{"measurement": "IOP change (mmHg) 30 min", "setting": "[2]; rabbit, in vivo", "result": "−5.6 ± 0.9", "unit": "mmHg"}, {"measurement": "IOP change (mmHg) 60 min", "setting": "[2]; rabbit, in vivo", "result": "−3.9 ± 1.0", "unit": "mmHg"}, {"measurement": "IOP change (mmHg) 120 min", "setting": "[2]; rabbit, in vivo", "result": "−2.4 ± 0.8", "unit": "mmHg"}]}
{"smiles": "CCCOc1ccc(S(=O)(=O)N2CCN(CCO)CC2)cc1-c1nc2c(CCC)cn(CC)c2c(=O)[nH]1", "note": "[Mirodenafil, reference compound]", "values": [{"measurement": "IOP change (mmHg) E300 min", "setting": "[2]; Example 24, Table 3, 300 min post-dosing, topical 50 μL, 0.5 μmoles/eye (each compound), mean±SEM n=6-9", "result": "−1.46 ± 0.79", "unit": "mmHg"}, {"measurement": "time post-dosing of Emax", "setting": "[2]; Example 24, Table 3, topical 50 μL, 0.5 μmoles/eye (each compound)", "result": 120, "unit": "min"}, {"measurement": "IOP change (mmHg) Emax", "setting": "[2]; Example 24, Table 3, topical 50 μL, 0.5 μmoles/eye (each compound), change versus basal and vehicle, mean±SEM n=6-9", "result": "−3.68 ± 0.89", "unit": "mmHg"}, {"measurement": "IOP change (mmHg) E300 min", "setting": "[1]; Example 22, Table 1, 300 min post-dose, topical 30 μL, 0.48 μmoles/eye (1.17 μmoles/eye for (IIIg)-OH), mean±SEM n=13", "result": "−3.4 ± 2.3", "unit": "mmHg"}, {"measurement": "time post-dosing of Emax", "setting": "[1]; Example 22, Table 1, topical 30 μL, 0.48 μmoles/eye (1.17 μmoles/eye for (IIIg)-OH)", "result": 180, "unit": "min"}, {"measurement": "IOP change (mmHg) Emax", "setting": "[1]; Example 22, Table 1, topical 30 μL, 0.48 μmoles/eye (1.17 μmoles/eye for (IIIg)-OH), change versus basal and vehicle, mean±SEM n=13", "result": "−5.0 ± 2.1", "unit": "mmHg"}, {"measurement": "IOP change (mmHg) 30 min", "setting": "[1]; Example 27, Table 6, 0.31 μmoles/eye (each compound), 30 μL topical, 30 min post-dose, mean±SEM n=13", "result": "−2.2 ± 1.4", "unit": "mmHg"}, {"measurement": "IOP change (mmHg) 60 min", "setting": "[1]; Example 27, Table 6, 0.31 μmoles/eye (each compound), 30 μL topical, 60 min post-dose, mean±SEM n=13", "result": "−4.1 ± 1.5", "unit": "mmHg"}, {"measurement": "IOP change (mmHg) 180 min", "setting": "[1]; Example 27, Table 6, 0.31 μmoles/eye (each compound), 30 μL topical, 180 min post-dose, mean±SEM n=13", "result": "−3.8 ± 1.0", "unit": "mmHg"}, {"measurement": "IOP change (mmHg) 300 min", "setting": "[1]; Example 27, Table 6, 0.31 μmoles/eye (each compound), 30 μL topical, 300 min post-dose, mean±SEM n=13", "result": "−2.2 ± 1.1", "unit": "mmHg"}, {"measurement": "IOP change (mmHg) 1440 min", "setting": "[1]; Example 27, Table 6, 0.31 μmoles/eye (each compound), 30 μL topical, 1440 min post-dose, mean±SEM n=13", "result": "−1.0 ± 1.1", "unit": "mmHg"}]}
{"smiles": "CCCOc1ccc(S(=O)(=O)N2CCN(CCO[N+](=O)[O-])CC2)cc1-c1nc2c(CCC)cn(CC)c2c(=O)[nH]1", "note": "[PDE5 nitrate ester, 2-(4-(3-(5-ethyl-4-oxo-7-propyl-4,5-dihydro-3H-pyrrolo[3,2-d]pyrimidin-2-yl)-4-propoxyphenylsulfonyl)piperazin-1-yl)ethyl Nitrate, reference compound]", "values": [{"measurement": "IOP change (mmHg) E180 min", "setting": "[2]; Example 25, Table 4, 180 min post-dosing, topical, 0.5 μmoles/eye, mean±SEM n=6-9", "result": "0.3 ± 0.8", "unit": "mmHg"}, {"measurement": "time post dosing of Emax", "setting": "[2]; Example 25, Table 4, topical, 0.5 μmoles/eye", "result": 60, "unit": "min"}, {"measurement": "IOP change (mmHg) Emax", "setting": "[2]; Example 25, Table 4, topical, 0.5 μmoles/eye, change versus basal and vehicle, mean±SEM n=6-9", "result": "−2.6 ± 0.5", "unit": "mmHg"}]}
